The target in one assay is T1, GltPh-G396S/R397C (Pyrococcus horikoshii, UniProt O59010, G396S/R397C).
T1 construct: hexa-His (N, cleaved yes); made in house; host or cells: Escherichia coli Top10 (pBAD)
Briefly: biochemical. It counts as biochemical. As to the method: (§1) Mutant and wild-type GltPh with an amino-terminal hexa-His tag were expressed in Escherichia coli Top10 cells (Invitrogen), which were grown in Luria broth medium at 37 °C. Ampicillin was added to a final concentration of 100 μg per ml. To induce expression of GltPh, 0.1% L-arabinose was added when cells reached an optical density of 0.6 at 660 nm, and cells were harvested 4 h post induction. Membranes were isolated, and then solubilised with n-dodecyl-β-D-maltopyranoside (C12M, Anatrace). Histidine containing proteins were purified using Ni^2+−nitrilotriacetic acid resin (Qiagen). The histidine tag was subsequently removed from GltPh by digestion with thrombin (10 U per mg protein) and the protein further purified on a Superdex 200 size exclusion column, where the detergent was exchanged to n-decyl-β-D-maltopyranoside (C10M, Anatrace).
(§2) Pure protein was reconstituted into liposomes composed of 75% E. coli Polar Lipid Extract and 25% 1-palmitoyl-2-oleoyl-sn-glycero-3 ^−phopshocholine (Avanti Polar Lipids). Lipids were mixed, dried under nitrogen and resuspended in internal buffer (100 mM KCl, 20 mM HEPES-Tris pH 7.5) using brief sonication (Laboratory Supplies Co.). The lipid suspension was frozen in liquid nitrogen and thawed at room temperature several times. Liposomes were formed by extrusion through 400 nm polycarbonate membranes (Avanti Polar Lipids) and were treated with Triton X-100 at a 0.5:1 (w/w) detergent to lipid ratio prior to the addition of protein at 0.25 μg protein per mg lipid. The protein/lipid mixture was left at room temperature for 30 min before detergent was removed using SM2 Biobeads (BioRad). The mixture was then incubated with gentle agitation, with four consecutive batches of Biobeads (80 mg per ml). Proteoliposomes were concentrated by centrifugation at 150,000 g for 30 min, resuspended at 100 mg lipid per ml and either used immediately or flash-frozen in liquid nitrogen and stored at −80 °C.
(§3) Mutant and wild-type GltPh-mediated transport of radiolabelled substrate was assayed by diluting proteoliposomes (100 mg lipid per ml) 133-fold into uptake buffer (100 mM NaCl, 20 mM HEPES-Tris pH 7.5, 1 μM valinomycin, 100 nM–1 µM L-[^3H]substrate) pre-warmed to 30 °C. At each time point, a 200 µl aliquot was removed and diluted 10-fold into ice-cold quench buffer (100 mM LiCl, 20 mM HEPES-Tris pH 7.5), followed by immediate filtration over nitrocellulose filters (0.22 μm pore size, Millipore). The filters were washed with ice-cold quench buffer and assayed for radioactivity using a Trilux beta counter (PerkinElmer). To establish substrate concentration–response curves, extraliposomal L-[^3H]substrate was varied between 500 nM and 100 µM, maintaining NaCl concentrations at 300 mM. For inhibitor concentration–response curves, for wild-type GltPh 100 nM L-[^3H]aspartate, and for mutant GltPh 1 µM L-[^3H]serine, was co-applied with varying inhibitor concentrations. Background levels of uptake were measured by diluting proteoliposomes into internal buffer (100 mM KCl, 20 mM HEPES-Tris pH 7.5) containing 1 µM of valinomycin and the indicated concentrations of L-[^3H]substrate.

The target of assay [1] is T2, GltPh-R397C (Pyrococcus horikoshii, UniProt O59010, R397C).
T2 construct: hexa-His (N, cleaved yes); made in house; host or cells: Escherichia coli Top10 (pBAD)
T2 sequence (O59010 whole entry R397C): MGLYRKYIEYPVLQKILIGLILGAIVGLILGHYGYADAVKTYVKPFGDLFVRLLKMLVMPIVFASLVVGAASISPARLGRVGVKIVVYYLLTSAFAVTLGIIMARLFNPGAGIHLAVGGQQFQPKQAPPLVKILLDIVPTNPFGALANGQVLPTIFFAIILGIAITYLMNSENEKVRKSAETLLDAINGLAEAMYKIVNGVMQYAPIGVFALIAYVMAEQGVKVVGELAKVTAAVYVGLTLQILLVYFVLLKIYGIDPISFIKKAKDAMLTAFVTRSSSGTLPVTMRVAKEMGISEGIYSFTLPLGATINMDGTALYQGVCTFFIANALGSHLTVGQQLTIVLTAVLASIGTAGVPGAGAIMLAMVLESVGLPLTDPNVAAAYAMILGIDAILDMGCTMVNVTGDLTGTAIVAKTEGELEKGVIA
The class given is biochemical. Particulars: 100 nM L-[3H]aspartate, 1 µM L-[3H]glutamine, 10 µM 35S-cysteine ± 1 mM DTT, Na+ gradient.

For a further assay, the target named is T3, wild-type GltPh (Pyrococcus horikoshii, UniProt O59010).
T3 construct: hexa-His (N, cleaved yes); made in house; host or cells: Escherichia coli Top10 (pBAD)
T3 sequence (O59010 1-425): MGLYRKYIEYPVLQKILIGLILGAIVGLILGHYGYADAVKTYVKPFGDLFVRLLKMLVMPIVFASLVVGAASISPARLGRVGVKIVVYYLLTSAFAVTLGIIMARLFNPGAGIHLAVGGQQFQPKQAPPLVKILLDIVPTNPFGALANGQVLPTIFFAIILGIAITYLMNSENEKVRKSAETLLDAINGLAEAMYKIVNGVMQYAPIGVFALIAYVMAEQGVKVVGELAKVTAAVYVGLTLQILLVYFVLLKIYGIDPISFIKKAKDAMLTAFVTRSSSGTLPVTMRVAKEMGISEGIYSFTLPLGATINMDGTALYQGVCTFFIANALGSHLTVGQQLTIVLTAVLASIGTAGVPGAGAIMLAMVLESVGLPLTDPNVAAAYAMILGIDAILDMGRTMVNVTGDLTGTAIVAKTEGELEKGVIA
As to the kind of experiment: Proteoliposome transport assay, wild-type GltPh. It counts as biochemical. How it is done:
as §1, §2, §3

In assay [2] the target is T2, GltPh-R397C. As to the kind of experiment: biochemical. How it is done: as §1, §2, §3
Supplementary Figure 6. GltPh‐R397C, ASCT1 and ASCT2 are functional cysteine transporters. (a) Purified GltPh‐R397C was reconstituted into liposomes and 10µM 35S‐cysteine transport was measured over 10 minutes alone or in the presence of 1 mM dithiothreitol (DTT). Background levels of uptake were measured by diluting proteoliposomes into internal buffer (100 mM KCl, 20 mM HEPES‐Tris pH 7.5) containing 1 µM of valinomycin and the 10µM 35S‐cysteine. […]
(c) Neutral amino acid exchange in GltPh‐R397C. Counterflow experiments in which Na+ and amino acid loaded liposomes were used to detect the transport of a range of unlabelled neutral amino acids by exchanging with external 3H‐serine. Counterflow assays were performed using liposomes containing 200mM NaCl, 20 mM HEPES/Tris pH 7.5, and 1 mM of unlabelled amino acid as indicated. […]

A further assay relates to glutamate transporters. On the set-up: method as in PMID 9463476. The following applies: quoted in discussion; cited from earlier work.
The test system of the next assay is ASCTs. Also on record: method as in PMID 9463476. Particulars: quoted in discussion; cited from earlier work.
Assay [3] concerns the target T2, GltPh-R397C. Briefly: biochemical. It counts as binding. How it is done: Fluorescence-based binding assays were performed by titrating purified protein (50 μg per ml) in 20 mM HEPES/Tris, pH 7.4, 200 mM choline chloride, 0.4 mM n-dodecyl^−β-D-maltopyranoside, 200 nM styryl fluorescent dye RH421 (Invitrogen, Inc., Grand Island, NY) with NaCl, L-ser, L-cys or benzylcysteine at 25 °C[51]. The RH421 dye was excited at 532 nm, and the fluorescence was collected at 628 nm using a QuantaMaster (Photon International Technology, Inc., Edison, NJ). Fluorescence emissions were measured after at least 10 min equilibration to ensure a stabilised signal. The data were analysed using GraphPad Prism version 6.0 for Mac (GraphPad Software, La Jolla California USA). Fractional fluorescence changes were normalised to maximal fluorescence changes, then plotted as a function of ligand concentration and fitted to the Hill equation. All the experiments were performed at least in triplicate.
Analysis of ligand binding data. The voltage sensitive amphipathic dye RH421 reports on Na+ binding to purified GltPh protein in detergent3. RH421 was used to follow Na+ binding to GltPh‐R397C protein either alone or in reactions coupled to binding of amino acids. […]
Coupled ions and amino acid binding was probed by titrating amino acids to the GltPh‐R397C protein in the presence of 10 – 100 mM Na+ ions. The obtained isotherms were analyzed to estimate an apparent number of Na+ ions coupled to binding of the amino acids.
Raw data were first normalized by the initial fluorescence of RH421 and plotted as fraction of fluorescence change (Supplementary […]
total amount of dye and detergent in the assay buffer.
To take into account significant amino acid‐independent Na+ binding, the sets of binding isotherms obtained at variable Na+ concentrations were fitted globally to a simplified binding equation: […]
KD,a is the combined dissociation constant for coupled Na+ and ligand binding and n is the apparent number of coupled ions. Fraction of the protein bound to either Na+ ions alone or to the ions and the […]
Fraction of the protein already bound to Na+ ions before ligand addition is: […]
Fractional fluorescence change Y is fitted to an equation: […]
where Y0 and ∆Y are, respectively, baseline and the signal difference between fully bound and apo […]
KD,a and n were fitted globally for each ligand. Y0 and ∆Y were adjusted for each isotherm independently. […]
individual isotherm to a standard Hill equation, plotted the apparent dissociation constants as functions of Na+ concentrations and compared the values to those predicted using the parameters from the global fits (Supplementary Figure 8).

[4] abbreviates: GltPh-G396S/R397C, 1 µM L-[3H]serine, read-out: IC50 for inhibition of L-[3H]serine transport.

Read-outs that look alike come from different tables or passages of the source.

Broadly, the IC50 is the concentration needed to halve the response being measured. What is called Kd is the equilibrium constant for the complex coming apart. Lower therefore signals higher affinity. Broadly, the EC50 is the concentration giving half of the maximal effect. Higher therefore signals a less potent agent.

T1 sequence (O59010 whole entry G396S/R397C): as the sequence (O59010 whole entry R397C) above, with G396S counted along it

For the compound `N[C@@H](CC(=O)O)C(=O)O` [L-aspartate], the “Transport of radiolabelled substrate into proteoliposomes (in words)” value on GltPh-G396S/R397C (GltPh-G396S/R397C, 100 nM L-[3H]aspartate, 1 µM L-[3H]glutamine, Na+ gradient, pH 7.5) was “does not effectively transport”; at GltPh-R397C [1], “no longer capable of transporting”.

In the case of `N[C@H](C(=O)O)[C@H](OCc1ccccc1)C(=O)O` [TBOA, L-threo-β-oxybenzylaspartic acid], the IC50 stood at 2 ± 1 µM on wild-type GltPh (100 nM L-[3H]aspartate, read-out: IC50 for inhibition of L-[3H]aspartate transport) and 500 ± 200 µM at GltPh-G396S/R397C (setting [4]). The “IC50 for inhibition of L-[3H]serine transport” value on GltPh-R397C [2] (GltPh-R397C, 1 µM L-[3H]serine) was “poorly inhibited”. In addition, the “Affinity for the glutamate transporters” value with glutamate transporters is ~ 50 μM.

For the compound `N[C@@H](COCc1ccccc1)C(=O)O` [benzylserine], at wild-type GltPh (100 nM L-[3H]aspartate), the “IC50 for inhibition of L-[3H]aspartate transport” value was “ineffective”. For the same compound, the IC50 at GltPh-R397C [2] (GltPh-R397C, 1 µM L-[3H]serine, read-out: IC50 for inhibition of L-[3H]serine transport) is 110 ± 10 µM; on GltPh-G396S/R397C (setting [4]), 120 ± 20 µM. Moreover, in the assay with ASCTs, the “Affinity for the ASCTs” value was ~ 1 mM.

In the case of `N[C@@H](CSCc1ccccc1)C(=O)O`, the “IC50 for inhibition of L-[3H]aspartate transport” value on wild-type GltPh (100 nM L-[3H]aspartate) is recorded as “ineffective”. Moreover, the “IC50 for inhibition of L-[3H]serine transport” value on GltPh-R397C [2] (GltPh-R397C, 1 µM L-[3H]serine) was “reduced affinity compared with benzylserine”. For the same compound, the “Affinity for the ASCTs” value with ASCTs is given as ~ 1 mM. On GltPh-G396S/R397C, this compound had an IC50 of 280 ± 60 µM. For the same compound, the equilibrium dissociation constant (Kd) at GltPh-R397C [3] amounted to 1000 ± 300 µM. Also, the “Apparent number of Na+ ions coupled to binding (n)” value at GltPh-R397C [3] (GltPh-R397C, global fit of isotherms at 10–100 mM Na+, 25 °C) stood at 0.8 ± 0.04.

Consider `C[C@H](N)C(=O)O` [L-alanine], for which the “Transport of radiolabelled substrate into proteoliposomes (in words)” value on wild-type GltPh (1 µM L-[3H]substrate, Na+ gradient, pH 7.5) is recorded as “not transported”. Further, the concentration for a half-maximal effect (EC50) at GltPh-R397C [2] was 14 ± 3 µM; at GltPh-G396S/R397C it was 4 ± 0.2 µM.

The record behind these values is article PMC5750217 (Nature Communications, 2018).
